Reference: patent US20230173295A1, “Systems, Devices, and Methods for Gamma Entrainment using Sensory Stimuli to Alleviate Cognitive Deficits and/or Neuroinflammation Induced by Chemotherapy Agents” (Massachusetts Institute of Technology, priority 2020, published 2023)
Entries after “also recorded” stand apart in the source; their conditions may differ.

What was measured:
[1] = test system: C57/BL6J male mouse; test: MTX induced chemo brain model: puzzle box test; assay type: in vivo; settings: MTX treatment
Experimental: Animals were placed in a testing arena containing a lighted (55 cm×28 cm) and a dark (15 cm×28 cm) compartment with a connecting tunnel (4 cm×4 cm×2.5 cm), facing the farthest wall from the dark compartment. 3 trials were performed for 3 days. 1 introductory period without any obstacles blocking the tunnel and 2 ‘easy task’ in which animals have to pass a corridor (4 cm×4 cm×12 cm). On day 2, 1 ‘easy task’ and 2 ‘intermediate task’ in which the corridor is blocked with sawdust and the animals have to dig through to reach the dark chamber were performed. On day 3, 1 ‘intermediate task’ and 2 ‘hard task’ where the tunnel was plugged with a tissue were performed. Time of the first entry to the dark chamber was recorded for every trials.
(§1) OFT, MWM behavior was tracked with a behavior tracking software (EthoVision XT, Nodulus). NOR and puzzle box behavior was scored by manual counting. Zeiss LSM 710 and Zeiss LSM 880 confocal microscope with Zen software was used to capture fluorescence images. A 3D image analysis software (IMARIS, Bitplane) was used to score Iba1 and GFAP positive voxels, and the area covered by MBP, ventricle size and cell number counting was scored with ImageJ software. Researcher was blinded for the experimental group during data analysis.

[2] = test system: C57/BL6J male mouse; test: MTX induced chemo brain model: novel object recognition (NOR); assay type: in vivo; settings: MTX without GENUS
Experimental: Animals were habituated in an OFT box for 10 min, 3 consecutive days. On the 4th day, two identical wooden blocks (Premium wooden building blocks set, Cubbie Lee) were placed in the chamber, and animals were allowed to explore the objects for 5 min, then the animals were returned to their home cage for 5 min. In the test phase, one of the wooden block is switched to a novel wooden block with a different shape, and the time spent exploring the familiar and new object was measured for 10 min. Discrimination ratio was calculated as time spent to explore the new object divided by the sum of time spent to explore both old and new object.
as §1

[3] = test system: C57/BL6J male mouse; test: MTX induced chemo brain model: Morris water maze (MWM) test; assay type: in vivo
Experimental: A circular cylinder with 122 cm diameter was filled with tap water (22° C.-24° C.) and a white paint was added to make the water opaque. The area was divided into 4 equal quardrants and a 10 cm diameter platform was placed in the center of the target quardrant (TQ), the platform being 1 inch lower than the water level. On the first day of training, animals were placed on the platform for 30 seconds, and then retrieved from the water (priming). After 1 minute of priming, animals were placed into the chamber facing the chamber wall. Time to reach the platform was measured when the animal was sitting on the platform for >1s. For 5 consecutive days, animals performed two trials, spaced 1 min. After 5 days of training, the platform was removed from the chamber, and the animals were placed in the center of the chamber. For 1 min duration, time spent in TQ were measured Novel Object Recognition (NOR)
as §1

[4] = test system: C57/BL6J male mouse; test: MTX induced chemo brain model: immunohistochemistry of brain slices; assay type: in vivo; settings: MTX NS
Experimental: 30˜40 μm thick vibratome sectioned brain slices were washed in PBS, then incubated in a blocking solution (3% normal donkey serum (Millipore Sigma, S30-M) and 0.3% Triton X-100 (Sigma-Aldrich, T8787-100ML) in PBS) for 2 hrs. Then, slices were treated with a blocking solution containing α-Iba1 (1:500, Abcam, ab178846), α-GFAP (1:1000, Novus Biologicals, NBP1-05198), α-MBP (1:500, Millipore, AB9348), α-yH2AX (1:500, EMD Millipore, 05-636), α-Iba1 (1:500, SYSY, 234004), α-Olig2 (1:200, Abcam, ab109186), α-Pdgfra (1:100, Abcam, ab90967) and α-Dcx (1:500, Cell signaling technology, 4604S) in a 4° C.-10° C. controlled cold room for 2 overnight. […]
as §1, with “Researcher was blinded for the experimental group during data analysis.” left out

[5] = test system: C57/BL6J male mouse; test: MTX induced chemo brain model: survival rate and body weight; settings: 100 mg/kg MTX i.p.
Experimental: P21 C57/BL6J male mouse received i.p. injection of either 100 mg/kg MTX or volume-matched PBS on P21, P28, P35 (i.e., 21 days after birth/21 days old, 28 days old, 35 days old) (FIG. 1A). Stim (S) group received 1 hr of 40 Hz audio+visual sensory stimulation immediately after the first injection, and then received 1 hr stimulation every day after that day's injection until the day before they were sacrificed. No stim (NS) group stayed under a dim light for 1 hr immediately after the first injection, and then stayed under a dim light for 1 hr every day until the day before they were sacrificed. Every animal was single-caged in a caged covered with a black-plastic bag on every wall but one side for the duration of 1 hr stim/sham period and then group housed with their littermates.
Another chemotherapeutic agent, methotrexate (MTX)-induced chemo brain animals were tested.

[6] = test system: C57/BL6J male mouse; test: MTX induced chemo brain model: open field test (OFT); assay type: in vivo; settings: MTX vs PBS
Experimental: Animals were placed in the center of 45×45 cm×40 cm (W×L×H) white acrylic box and their movement were tracked with a behavior tracking software (EthoVision XT, nodulus) for 10 min. 22.5 cm×22.5 cm area in the center of the box was marked as ‘center area’.
as §1

## CN(Cc1cnc2nc(N)nc(N)c2n1)c1ccc(C(=O)N[C@@H](CCC(=O)O)C(=O)O)cc1 [MTX, methotrexate]
[1]
  puzzle box test performance: cognitive impairment
[2]
  NOR: time exploring novel and familiar object: spent comparable time exploring noble and familiar object
[3]; PBS NS, MTX NS, PBS S, MTX S
  MWM performance: swimming speed, spatial learning and memory: comparable performance in swimming speed, spatial learning and memory
[3]; mouse, in vivo
  MWM learning curve: neither MTX nor GENUS altered learning curve
  MWM swimming speed: neither MTX nor GENUS altered swimming speed
[4]
  Iba1 signal in corpus callosum: dramatically increased; also recorded: significantly higher
[5]; 1 week after the first administration
  survival rate: ~60%
[5]; within 1 week after the first MTX injection
  lethality: 40%
[6]
  locomotion in OFT: neither GENUS nor methotrexate (MTX) treatment affected locomotion
  time spent in center area during OFT: GENUS but not MTX significantly increased time spent in center area
